Test results reported in US20240156778A1, “THIOPHENE DERIVATIVES FOR USE IN TREATING PORTAL INFLAMMATION AND FIBROSIS” (ENYO PHARMA, priority 2019, published 2024).

Assays:
[1] = system: NASH mouse model; experiment: Periportal inflammation score in the AMLN-diet NASH mouse model (H&E inflammatory foci); format: in vivo, male C57BL/6JRj mice; settings: 8 weeks oral dosing after high-fat (AMLN) diet; Compound #157 7 or 20 mg/kg twice daily; OCA 30 mg/kg once daily; FIG. 1
Description: (§1) Mice were fed with a high-fat diet for 30 weeks and then treated by oral administration, twice daily with either compound #157 or once daily with OCA for 8 weeks. Effects on portal/periportal inflammation and fibrosis and on lobular inflammation were determined before treatment and upon study completion.
(§2) Five week old, male C57BL/6JRj mice were fed either chow diet (Altromin 1324, Brogaarden, Denmark) or AMLN diet (40% total fat kcal of which 18.5% were trans-fat kcal, 20% fructose, 2% cholesterol; Research Diets #D09100301). This diet was maintained for 29 weeks prior to study initiation.
Three weeks prior to study initiation, liver biopsies were taken and animals with steatosis grade <2 and fibrosis stage <1 were deselected from the study. Prior to first administration of test article, stratified randomization of mice into treatment groups was performed according to collagen 1a1 (IHC) morphometry from the week -3 biopsies. […]
(§3) At termination, right medial and/or left lateral lobes of the liver (>50% of each lobe harvested) were excised and fixed in 10% neutral-buffered formalin (at least 7 days at room temperature). […] NAFLD and NASH were scored by use of criteria outlined by Kleiner et al. Hepatology 41, p. […]
Inflammation was evaluated by counting the number of hematoxylin and eosin (H&E) positive inflammatory foci per field using a 200× magnification (min. 5 fields per animal). […]

[2] = system: NASH mouse model; experiment: Periportal fibrosis (% fractional area, Picro Sirius Red) in the AMLN-diet NASH mouse model; format: in vivo, male C57BL/6JRj mice; settings: 8 weeks oral dosing after high-fat (AMLN) diet; Compound #157 7 or 20 mg/kg twice daily; FIG. 2
Description: as §1, §2
Three weeks prior to study initiation, liver biopsies were taken and animals with steatosis grade <2 and fibrosis stage <1 were deselected from the study. […]
as §3
Portal fibrosis was quantified using Visiopharm Histopathology Image Analysis software (Visioparm, Hørsholm, Denmark). […] Periportal fibrosis was then detected in the periportal zone using the linear Bayesian method and reported as an area fraction.

Q: What does the source list for `O=C(Nc1scc(C2CCc3ccccc3C2)c1C(=O)O)c1ccccc1` (stereo not drawn) [Compound #157]?
A: Effect on portal/periportal inflammation [1]: resolves; Effect on portal/periportal fibrosis [2]: resolves

Q: How did the “Effect on portal/periportal inflammation” value [1] turn out when `CC[C@H]1[C@@H](O)[C@@H]2[C@H](CC[C@]3(C)[C@@H]([C@H](C)CCC(=O)O)CC[C@@H]23)[C@@]2(C)CC[C@@H](O)C[C@@H]12` [OCA, Obeticholic acid, reference compound] was run?
A: The value was “no effect”.
